Results from patent US6361995B1, “Protection of pancreatic β-cells during islet isolation and assessment of islet viability and candidate diabetes drugs after islet isolation” (NAB Research Foundation, priority 1999, dated 2002).

Columns and labels:
[1] = tested on: p135 (135 kD O-glycosylated protein) in isolated islets; assay: p135 O-glycosylation in isolated islets (RL2 immunoprecipitation and Western blotting); type: cell-based, rat; details: for effect on glucose-induced p135 O-glycosylation: 100 μM DON with 28 mM glucose; for increase in p135 O-glycosylation: 5 mM, 60 min, islets isolated in 11 mM glucose and 1 mM L-glutamine
Experimental: (§1) In a typical experiment, islets were isolated aseptically from 3-4 male Sprague-Dawley rats. During surgery, the common bile duct of each pancreas was cannulated, and the pancreas was inflated with 20 ml of Hank's Balanced Salt Solution (HBSS). The distended pancreas was excised, and lymph nodes, fat, blood vessels, and bile ducts were removed under a stereo dissecting microscope. Tissue was chopped extensively and rinsed 5-6 times with HBSS. The tissue was digested with collagenase P (3 mg/ml tissue) at 37° C. for 3-4 min using a wrist action shaker. Digested tissue was rinsed 3-4 times with HBSS, and islets were purified on a discontinuous Ficoll gradient consisting of 27%, 23%, 20.5%, and 11% Ficoll in (25 mM) HEPES-HBSS buffer. Islets were harvested from the gradient and washed once with HBSS. Islets were washed 6 times in DMEM supplemented with 25 mM HEPES pH 7.40, 25 mM NaHCO3, 0.1% bovine serum albumin, 3 mM glucose, and 1 mM L-glutamine (complete DMEM). This isolation procedure typically provided 300-400 islets per rat, which were then used as described below. In selected experiments, islets were isolated as described above, except that all isolation buffers were supplemented t o contain 11 mM glucose and 1 mM L-glutamine.
(§2) Freshly isolated islets were placed into siliconized 16×100-mm round bottom, screw-cap tubes and pre-incubated for 30 min in 1 ml of complete DMEM. For each experiment, 100 islets were placed into each tube. Pre-incubation and all subsequent incubations were performed at 37° C. under an atmosphere of 95% O2/5% CO2. After 30 min, pre-incubation buffer was aspirated, and islets were incubated with complete DMEM supplemented with the appropriate secretagogue. At the end of the incubation period, the entire supernatant was removed for insulin radioimmunoassay. Islets were processed for subsequent immunoprecipitation as described below. For each experiment, insulin secretion in the control sample was set at 100% and all other results were expressed as percentages of control.
At the end of the experiment, all supernatant was removed from the tubes or dishes. One ml of ice-cold lysis buffer (50 mM HEPES, pH 7.40, 150 mM NaCl, 1% Triton X-100, 5 mM EDTA, 5 mM EGTA, 20 mM NaF, 20 mM Na4P2O7, 1 mM NaVO4, 1 mg/ml bacitracin, 1 mM phenylmethylsulfonylfluoride, 1 μg/ml leupeptin, 1 μg/ml aprotinin) was added to each tube or dish. Cells were scraped on ice into 1.5 ml conical screw cap Eppendorf tubes. Borosilicate tubes containing islets were vortexed for 30 sec and placed on ice for 30 min. Islet samples were vortexed for an additional minute before transfer to 1.5-ml conical screw cap Eppendorf tubes. All subsequent immunoprecipitation steps were performed at 4° C. Samples were centrifuged at 10,000×g for 15 min. The supernatant was transferred to a second 1.5-ml conical Eppendorf tube, and O-glycosylated proteins were immunoprecipitated for 2 h on a rocker with 2 μl of mouse monoclonal RL2 antibody, which selectively binds to O-glycosylated protein (21,22). After 2 h, 20 μl of protein A trisacryl beads (Pierce) preadsorbed with 20 μg of rabbit anti-mouse antibody (Sigma) were added to the tubes and the incubation was continued for an additional 2 hours. At the end of the incubation, beads were washed once with Wash Buffer 1 (150 mM NaCl, 10 mM HEPES, pH 7.40, 1% Triton X-100, and 0.1% SDS) and once with Wash Buffer 2 (10 mM HEPES, pH 7.40, 1% Triton X-100, and 0.1% SDS). After the final washing step, 25 μl of 2× sample buffer (100 mM Tris, pH 6.80, 4% SDS, 20% glycerol, and 20 μg/liter bromophenol blue) was added to each tube. Samples were vortexed for 30 sec, boiled for 5 min, and stored at −20° C. prior to subsequent analysis.
Samples were loaded onto 7.5% SDS-polyacrylamide gels. Colored molecular weight markers (Amersham) were run on each gel. Proteins were separated for 1 h at 175 V at room temperature using a Bio-Rad Mini-PROTEAN II dual slab cell. […]

isolated islets = assay: Insulin secretion from isolated islets (radioimmunoassay); type: cell-based, rat; details: for Insulin (secretion in isolated islets): islets isolated in 11 mM glucose and 1 mM L-glutamine
Experimental: as §1, §2
Films were photographed using a Sony digital camera, and intensities of bands present on films were quantitated using the program NIH Image. All results are expressed as the mean±SEM, using the Windows-compatible version 2.98 of the program FigP (Biosoft, St. Louis, Mo.). Statistical analysis was performed using the same program. Data were analyzed by one-way analysis of variance followed by multiple comparisons between the means using the least significant difference test. A probability of p<0.05 was considered to indicate statistical significance.

β-cells = details: 50-100 mg/kg administered to a rat; development of diabetes; cited from earlier work
β-TC3 cells = assay: Protein O-glycosylation in β-TC3 cells (RL2 immunoprecipitation and Western blotting); type: cell-based; details: 5 mM, 60 min after 30 min in 0 mM glucose (FIG. 8)
Experimental: β-TC3 cells (passage 37) were obtained form the University of Pennsylvania Diabetes Center from Dr. D. Hanahan (University of California, San Francisco). β-TC3 cells were cultured in 10-cm dishes in the presence of RPMI 1640 medium supplemented with 10% fetal bovine serum, penicillin (75 μg/ml), streptomycin (50 μg/ml), and 2 mM L-glutamine. Cells were trypsinized and subcloned weekly. Media were changed twice weekly and on the day prior to an experiment, and insulin responsiveness to glucose and carbachol was routinely monitored. Cells were used between passages 38 and 55.
β-TC3 cells in 10-cm dishes were washed three times in Krebs'-HEPES buffer (25 mM HEPES, pH 7.40, 115 mM NaCl, 24 mM NaHCO3, 5 mM KCl, 2.5 mM CaCl2, 1 mM MgCl2) supplemented with 0.1% bovine serum albumin and 1 mM L-glutamine. Cells were pre-incubated in 5 ml of the same buffer for 30 min at 37° C. under an atmosphere of 95% air/5% CO2. After 30 min, the pre-incubation buffer was aspirated and cells were incubated at 37° C. under an atmosphere of 95% air/5% CO2 with 5 ml of Krebs'-HEPES buffer supplemented with the appropriate secretagogue. At the end of the incubation period, supernatant was removed for insulin radioimmunoassay. Cells left in the dishes were processed for subsequent immunoprecipitation as described below.
At the end of the experiment, all supernatant was removed from the tubes or dishes. […]

[2] = tested on: RL2 antibody binding to p135; assay: Blocking of RL2 antibody immunoprecipitation of p135 by added sugars; parameters: species or system mouse; details: 0.3 M added during the RL2 immunoprecipitation step (FIG. 3)
Experimental: Islets (100/condition) were incubated for 60 min with either 3 mM glucose (G3) or 28 mM glucose following pre-incubation with 5 mM streptozotocin (STZ). At the end of the incubation period, O-glycosylated proteins were immunoprecipitated with RL2 antibody in the presence of 0.3 M N-acetylglucosamine (GlcNAc), 0.3 M N-acetylgalactosamine (GalNAc), or 0.3 M glucosamine (GlcN) and analyzed by Western blotting as described in FIG. 1.
At the end of the experiment, all supernatant was removed from the tubes or dishes. One ml of ice-cold lysis buffer (50 mM HEPES, pH 7.40, 150 mM NaCl, 1% Triton X-100, 5 mM EDTA, 5 mM EGTA, 20 mM NaF, 20 mM Na4P2O7, 1 mM NaVO4, 1 mg/ml bacitracin, 1 mM phenylmethylsulfonylfluoride, 1 μg/ml leupeptin, 1 μg/ml aprotinin) was added to each tube or dish. Cells were scraped on ice into 1.5 ml conical screw cap Eppendorf tubes. Borosilicate tubes containing islets were vortexed for 30 sec and placed on ice for 30 min. Islet samples were vortexed for an additional minute before transfer to 1.5-ml conical screw cap Eppendorf tubes. All subsequent immunoprecipitation steps were performed at 4° C. Samples were centrifuged at 10,000×g for 15 min. […]

For `[N-]=[N+]=CC(=O)CC[C@H](N)C(=O)O` [DON, 6-diazo-5-oxonorleucine], which “effect on glucose-induced p135 O-glycosylation” value ([1]; 60 min (FIG. 4)) is on record?
The value was “inhibited”.

And the “effect on glucose-induced p135 O-glycosylation” value ([1]; 60 min (FIG. 4), listed as 5-diazo-oxo-norleucine)?
Its value is “completely blocked”.

And the “effect on glucose-induced insulin secretion” value (isolated islets; 100 μM DON with 28 mM glucose, 60 min)?
The value was “no significant effect”.

And the “Insulin (secretion in isolated islets)” value (isolated islets; DON 100 (μM) in 3 mM glucose, 60 min, control 3 mM glucose without DON = 100)?
The value was 160.6 ± 50.5%.

Which “time to death of most of the β-cells” value (β-cells) does the source give for `CN(N=O)C(=O)N[C@H]1C(O)O[C@H](CO)[C@@H](O)[C@@H]1O` (mixture of isomers) [streptozotocin] here?
The value was ≤ 8 h.

And the “reversibility of p135 O-glycosylation” value ([1]; 5 mM pre-incubation 30 min, then 3 or 28 mM glucose 30 min, then 3 mM glucose 30 min (FIG. 5))?
Its value is “not readily reversible”.

And the “stimulation of p135 O-glycosylation in the presence of DON” value ([1]; 5 mM with 100 μM DON, 60 min (FIG. 4))?
Its value is “able to increase p135 O-glycosylation”.

What about the “increase in p135 O-glycosylation” value ([1]; compared to 3 mM glucose control (FIG. 7 experiment)) of the same compound?
Its value is 361.3±78.8%.

What about the “increase in p135 O-glycosylation” value ([1]; versus 3 mM glucose control (FIG. 2)) of the same compound?
The value was 333.9±66.8%.

And the “stimulation of p135 O-glycosylation” value ([1]; islets isolated in low glucose and no added L-glutamine, concentration not given)?
The value was “no consistent increase in p135 O-glycosylation”.

And the “Insulin (secretion in isolated islets)” value (isolated islets; 5 mM, DON 0, 60 min, control 3 mM glucose = 100)?
Its value is 147.1 ± 16.8%.

And the “Insulin (secretion in isolated islets)” value (isolated islets; 5 mM, DON 100 (μM), 60 min, control 3 mM glucose = 100)?
The value was 115.6 ± 7.8%.

What about the “O-glycosylation response of β-TC3 cells” value (β-TC3 cells) of the same compound?
Its value is “fail to undergo increased O-glycosylation”.

With `CC(=O)N[C@H]1C(O)O[C@H](CO)[C@H](O)[C@@H]1O` (stereo partly drawn) [GalNAc, N-acetylgalactosamine] as the compound, how does the “inhibition of RL2 immunoprecipitation of p135” value [2] read?
Its value is “neither GalNAc nor glucosamine added at the same concentration as GlcNAc prevented”.

Which “inhibition of RL2 immunoprecipitation of p135” value [2] does the source give for `CC(=O)N[C@H]1C(O)O[C@H](CO)[C@@H](O)[C@@H]1O` (stereo partly drawn) [GlcNAc, N-acetylglucosamine] here?
The value was “completely inhibited”.
